Test results: ChEMBL document CHEMBL4732135, “Structural and mechanistic insights into the inhibition of amyloid-β aggregation by Aβ fragment derived synthetic peptides” (Eur J Med Chem, 2021)
Activity calls are given as the source filed them. The rule behind the calls is not given here. Square brackets hold non-standard residues; d marks the D form. Peptide text beside a SMILES is read from it. Phe(4-F) = N[C@@H](Cc1ccc(F)cc1)C(=O)O; Tle = CC(C)(C)[C@H](N)C(=O)O

Experiments:
[1] = molecular target: Amyloid-beta precursor protein (Homo sapiens) (UniProt P05067); assay: Inhibition of amyloid beta (1 to 42) (unknown origin) assessed as reduction in peptide aggregation at 10 uM measured after 24 hrs by thioflavin-T fluorescence assay relative to control
Amyloid-beta precursor protein (Homo sapiens), sequence (P05067 whole entry): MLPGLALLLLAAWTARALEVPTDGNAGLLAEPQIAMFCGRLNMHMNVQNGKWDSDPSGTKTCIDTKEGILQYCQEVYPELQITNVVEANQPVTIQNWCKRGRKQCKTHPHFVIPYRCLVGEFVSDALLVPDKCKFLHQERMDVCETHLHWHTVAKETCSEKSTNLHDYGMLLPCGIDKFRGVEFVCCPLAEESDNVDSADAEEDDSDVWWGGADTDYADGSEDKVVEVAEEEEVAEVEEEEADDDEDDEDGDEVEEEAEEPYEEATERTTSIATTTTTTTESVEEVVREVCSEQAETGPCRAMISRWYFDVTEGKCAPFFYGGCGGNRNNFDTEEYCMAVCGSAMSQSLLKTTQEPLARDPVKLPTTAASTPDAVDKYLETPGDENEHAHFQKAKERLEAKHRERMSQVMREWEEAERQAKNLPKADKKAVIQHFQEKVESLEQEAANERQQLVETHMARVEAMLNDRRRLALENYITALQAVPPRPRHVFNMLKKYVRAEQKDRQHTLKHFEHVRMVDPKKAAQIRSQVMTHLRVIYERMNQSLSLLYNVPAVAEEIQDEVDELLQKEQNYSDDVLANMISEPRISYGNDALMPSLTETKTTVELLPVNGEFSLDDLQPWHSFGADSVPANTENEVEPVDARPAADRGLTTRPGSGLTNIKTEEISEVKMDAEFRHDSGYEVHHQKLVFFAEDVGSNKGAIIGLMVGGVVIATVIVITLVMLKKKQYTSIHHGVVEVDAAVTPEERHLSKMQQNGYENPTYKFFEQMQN

PC-12 [2] = assay: Neuroprotective activity against amyloid beta 42-induced toxicity in rat PC-12 cells assessed as cell viability at 10 uM measured after 6 hrs by MTT assay (reference value: 74.05%); format: functional; details: read-out: Activity
[3] = molecular target: Amyloid-beta precursor protein (Homo sapiens) (UniProt P05067); assay: Inhibition of amyloid beta (1 to 42) (unknown origin) assessed as reduction in peptide aggregation at 2 uM measured after 24 hrs by thioflavin-T fluorescence assay relative to control
PC-12 [4] = assay: Cytotoxicity against rat PC-12 cells assessed as reduction in cell viability at 20 uM measured after 6 hrs by MTT assay; format: cell-based; details: pc-12, 6 h
[5] = molecular target: Amyloid-beta precursor protein (Homo sapiens) (UniProt P05067); assay: Inhibition of amyloid beta (1 to 42) (unknown origin) assessed as reduction in peptide aggregation at 4 uM measured after 24 hrs by thioflavin-T fluorescence assay relative to control
PC-12 [6] = assay: Neuroprotective activity against amyloid beta 42-induced toxicity in rat PC-12 cells assessed as cell viability at 2 uM measured after 6 hrs by MTT assay (reference value: 74.05%); format: functional; details: read-out: Activity
Cortical neurone [7] = assay: Cytotoxicity against rat primary cortical neuron assessed as reduction in cell viability at 20 uM measured after 6 hrs by MTT assay; format: cell-based
PC-12 [8] = assay: Neuroprotective activity against amyloid beta 42-induced toxicity in rat PC-12 cells assessed as cell viability at 4 uM measured after 6 hrs by MTT assay (reference value: 74.05%); format: functional; details: read-out: Activity
Cortical neurone [9] = assay: Neuroprotective activity against amyloid beta 42-induced toxicity in rat primary cortical neurons at 10 uM; format: functional, cell-based
[10] = Effective permeability of compound in pH 8 PBS buffer by PAMPA-BBB assay; format: ADME
PC-12 [11] = assay: Neuroprotective activity against amyloid beta 42-induced toxicity in rat PC-12 cells assessed as cell viability at 0.5 uM measured after 6 hrs by MTT assay (reference value: 73.8%); format: functional; details: read-out: Activity
Cortical neurone [12] = assay: Neuroprotective activity against amyloid beta 42-induced toxicity in rat primary cortical neurons at 0.1 uM; format: functional, cell-based
[13] = Stability of compound in serum (unknown origin) at 5 uM measured up to 12 hrs by HPLC analysis; format: ADME, cell-free; details: read-out: Stabilty
[14] = molecular target: Amyloid-beta precursor protein (Homo sapiens) (UniProt P05067); assay: Binding affinity to amyloid beta (1 to 42) (unknown origin) assessed as absence of fibrillar assembly at 10 uM measured after 24 hrs by HR-TEM analysis
[15] = molecular target: Amyloid-beta precursor protein (Homo sapiens) (UniProt P05067); assay: Inhibition of amyloid beta (1 to 42) (unknown origin) aggregation assessed as relative fluorescence unit at 10 uM measured after 24 hrs by thioflavin-T fluorescence assay (reference value: 100%)
[16] = molecular target: Amyloid-beta precursor protein (Homo sapiens) (UniProt P05067); assay: Inhibition of amyloid beta (1 to 42) (unknown origin) assessed as reduction in peptide aggregation at 0.5 uM measured after 24 hrs by thioflavin-T fluorescence assay relative to control
[17] = molecular target: Amyloid-beta precursor protein (Homo sapiens) (UniProt P05067); assay: Disaggregation of preformed amyloid beta (1 to 42) (unknown origin) aggregation at 1 uM measured at 24 hrs interval for 120 hrs by thioflavin-T fluorescence assay relative to control
[18] = molecular target: Amyloid-beta precursor protein (Homo sapiens) (UniProt P05067); assay: Binding affinity to amyloid beta (1 to 42) (unknown origin) assessed as amyloid beta (2 to 42)-adduct formation at 10 uM measured after 24 hrs by ESI-HRMS analysis
[19] = molecular target: Amyloid-beta precursor protein (Homo sapiens) (UniProt P05067); assay: Inhibition of amyloid beta (1 to 42) (unknown origin) aggregation measured after 24 hrs by tyrosine fluorescence assay
[20] = molecular target: Amyloid-beta precursor protein (Homo sapiens) (UniProt P05067); assay: Inhibition of amyloid beta (1 to 42) (unknown origin) aggregation assessed as protein with beta sheet conformation at 10 uM measured after 24 hrs by circular dichroism analysis (reference value: 66.4%); set-up: scale not given: the % may be the effect or the level left
[21] = molecular target: Amyloid-beta precursor protein (Homo sapiens) (UniProt P05067); assay: Inhibition of amyloid beta (1 to 42) (unknown origin) assessed as reduction in peptide aggregation at 0.1 uM measured after 24 hrs by thioflavin-T fluorescence assay relative to control
[22] = molecular target: Amyloid-beta precursor protein (Homo sapiens) (UniProt P05067); assay: Inhibition of amyloid beta (1 to 42) (unknown origin) aggregation assessed as protein with random coil conformation at 10 uM measured after 24 hrs by circular dichroism analysis (reference value: 5%); set-up: scale not given: the % may be the effect or the level left
[23] = molecular target: Amyloid-beta precursor protein (Homo sapiens) (UniProt P05067); assay: Disaggregation of preformed amyloid beta (1 to 42) (unknown origin) aggregation at 2 uM by thioflavin-T fluorescence assay; details: time 24-120 hrs, TDE = time-dependent effect
[24] = molecular target: Amyloid-beta precursor protein (Homo sapiens) (UniProt P05067); assay: Disaggregation of preformed amyloid beta (1 to 42) (unknown origin) aggregation at 2 uM measured after 24 hrs by ANS dye based fluorescence assay
[25] = molecular target: Amyloid-beta precursor protein (Homo sapiens) (UniProt P05067); assay: Disaggregation of preformed amyloid beta (1 to 42) (unknown origin) aggregation at 2 uM measured at 24 hrs interval for 120 hrs by thioflavin-T fluorescence assay relative to control
PC-12 [26] = assay: Neuroprotective activity against amyloid beta 42-induced toxicity in rat PC-12 cells assessed as cell viability at 0.1 uM measured after 6 hrs by MTT assay (reference value: 73.8%); format: functional; details: read-out: Activity
[27] = molecular target: Amyloid-beta precursor protein (Homo sapiens) (UniProt P05067); assay: Inhibition of amyloid beta (1 to 42) (unknown origin) aggregation at 2 uM measured after 24 hrs by ANS dye based fluorescence assay
[28] = molecular target: Amyloid-beta precursor protein (Homo sapiens) (UniProt P05067); assay: Disaggregation of preformed amyloid beta (1 to 42) (unknown origin) aggregation at 0.5 uM measured at 24 hrs interval for 120 hrs by thioflavin-T fluorescence assay relative to control
[29] = molecular target: Amyloid-beta precursor protein (Homo sapiens) (UniProt P05067); assay: Inhibition of amyloid beta (1 to 42) (unknown origin) aggregation assessed as relative fluorescence unit at 2 uM measured after 24 hrs by thioflavin-T fluorescence assay (reference value: 100%)
[30] = Stability of compound in serum (unknown origin) assessed as peptide cleavage at 5 uM measured after 24 hrs by MS analysis; format: ADME, cell-free
[31] = molecular target: Amyloid-beta precursor protein (Homo sapiens) (UniProt P05067); assay: Inhibition of amyloid beta (1 to 42) (unknown origin) assessed as reduction in peptide aggregation at 1 uM measured after 24 hrs by thioflavin-T fluorescence assay relative to control
[32] = molecular target: Amyloid-beta precursor protein (Homo sapiens) (UniProt P05067); assay: Inhibition of amyloid beta (1 to 42) (unknown origin) aggregation assessed as relative fluorescence unit at 4 uM measured after 24 hrs by thioflavin-T fluorescence assay (reference value: 100%)
[33] = molecular target: Amyloid-beta precursor protein (Homo sapiens) (UniProt P05067); assay: Binding affinity to amyloid beta (1 to 42) (unknown origin) assessed as absence of fibrillar assembly at 10 uM measured after 24 hrs by STEM analysis
[34] = molecular target: Amyloid-beta precursor protein (Homo sapiens) (UniProt P05067); assay: Binding affinity to amyloid beta (1 to 42) (unknown origin) assessed as amyloid beta (25 to 42)-adduct formation at 10 uM measured after 24 hrs by ESI-HRMS analysis
PC-12 [35] = assay: Neuroprotective activity against amyloid beta 42-induced toxicity in rat PC-12 cells assessed as cell viability at 1 uM measured after 6 hrs by MTT assay (reference value: 73.8%); format: functional; details: read-out: Activity
[36] = molecular target: Amyloid-beta precursor protein (Homo sapiens) (UniProt P05067); assay: Inhibition of amyloid beta (1 to 42) (unknown origin) aggregation at 2 uM measured after 24 hrs in presence of giant unilamellar vesicles by ANS dye based fluorescence assay
[37] = molecular target: Amyloid-beta precursor protein (Homo sapiens) (UniProt P05067); assay: Inhibition of amyloid beta (1 to 42) (unknown origin) assessed as reduction in peptide aggregation at 0.5 to 2 uM measured at 24 hrs interval for […] by thioflavin-T fluorescence assay; details: dose 0.5-2 µM

inhibition [1] [%] | inhibition [3] [%] | inhibition [5] [%] | Peff [10] | RFU [15] [%] | inhibition [16] [%] | inhibition [21] [%] | RFU [29] [%] | inhibition [31] [%] | RFU [32] [%] | Compound | viability at 10 µM (PC-12 [2]) [%] | Activity (PC-12 [4]) | viability at 2 µM (PC-12 [6]) [%] | Activity (Cortical neurone [7]) | viability at 4 µM (PC-12 [8]) [%] | Activity (Cortical neurone [9]) | viability at 0.5 µM (PC-12 [11]) [%] | viability at 0.1 µM (PC-12 [26]) [%] | viability at 1 µM (PC-12 [35]) [%] | other results
100 | 82 | 100 |  |  |  |  |  |  |  | CC[C@H](C)[C@H](NC(=O)[C@@H](NC(=O)[C@@H](N)C(C)C)C(C)C)C(=O)N[C@@H](CC(=O)O)C(=O)O (H-VVID-OH) | 95.8 | Non-Toxic | 100 | Non-Toxic | 98.7 |  |  |  |  | 
91.7 | 100 | 97.5 | Permeable | 57.2 | 81 | 79.9 | 53.1 | 83.1 | 54.5 | CC[C@H](C)[C@H](NC(=O)[C@@H](NC(=O)[C@@H](N)Cc1ccc(F)cc1)C(C)C)C(=O)N[C@@H](C)C(=O)O (H-[Phe(4-F)]VIA-OH) | 100 | Non-Toxic | 100 | Non-Toxic | 100 |  | 83.1 | 79.3 | 97.2 | Activity (Cortical neurone [12]): Active; remaining at 12 h, 5 µM [13]: 90%; Activity [14]: Active; inhibition [17]: 42.5%; Activity [18]: Active; inhibition [19]: Active; Activity [20]: 13.6%; Activity [22]: 97.6%; Activity [23]: Tde; Activity [24]: Active; inhibition [25]: 61%; inhibition [27]: Active; inhibition [28]: 32.1%; Stabilty [30]: Unstable; Activity [33]: Active; Activity [34]: Active; inhibition [36]: Active; inhibition [37]: Active
95.3 | 100 | 97.4 |  | 55.5 | 41.3 | 34.4 | 51.2 | 51.8 | 54.5 | CC[C@H](C)[C@H](NC(=O)[C@@H](NC(=O)[C@@H](N)C(C)(C)C)C(C)(C)C)C(=O)N[C@@H](C)C(=O)O (H-[Tle][Tle]IA-OH) | 100 | Non-Toxic | 100 | Non-Toxic | 100 |  | 94.5 | 91.2 | 97.6 | 

Further lines, the compound ahead of its results:

Compound | inhibition [1] [%] | inhibition [3] [%] | inhibition [5] [%] | Peff [10] | RFU [15] [%] | inhibition [16] [%] | inhibition [21] [%] | RFU [29] [%] | inhibition [31] [%] | RFU [32] [%] | viability at 10 µM (PC-12 [2]) [%] | Activity (PC-12 [4]) | viability at 2 µM (PC-12 [6]) [%] | Activity (Cortical neurone [7]) | viability at 4 µM (PC-12 [8]) [%] | Activity (Cortical neurone [9]) | viability at 0.5 µM (PC-12 [11]) [%] | viability at 0.1 µM (PC-12 [26]) [%] | viability at 1 µM (PC-12 [35]) [%] | other results
Oc1ccc(/C=C/c2cc(O)cc(O)c2)cc1 |  |  |  |  |  |  |  |  |  |  |  |  |  |  |  | Active |  |  |  | 
CC[C@H](C)[C@H](NC(=O)[C@H](Cc1ccccc1)NC(=O)[C@@H](N)Cc1ccccc1)C(=O)N[C@@H](C)C(=O)O (H-FFIA-OH) | 100 | 92.2 | 97.2 | Permeable |  |  |  |  |  |  | 83.8 | Non-Toxic | 98 | Non-Toxic | 100 |  |  |  |  | 
COc1cc(/C=C/C(=O)CC(=O)/C=C/c2ccc(O)c(OC)c2)ccc1O |  |  |  |  |  |  |  |  |  |  |  |  |  |  |  | Active |  |  |  | 
